The values below come from US20150258101A1 (Proximagen Limited, priority 2014, published 2015).

In test [1] the target is T1, purified recombinantly expressed human SSAO (Homo sapiens, UniProt Q16853).
T1 construct: made in house
T1 sequence (Q16853 1-763): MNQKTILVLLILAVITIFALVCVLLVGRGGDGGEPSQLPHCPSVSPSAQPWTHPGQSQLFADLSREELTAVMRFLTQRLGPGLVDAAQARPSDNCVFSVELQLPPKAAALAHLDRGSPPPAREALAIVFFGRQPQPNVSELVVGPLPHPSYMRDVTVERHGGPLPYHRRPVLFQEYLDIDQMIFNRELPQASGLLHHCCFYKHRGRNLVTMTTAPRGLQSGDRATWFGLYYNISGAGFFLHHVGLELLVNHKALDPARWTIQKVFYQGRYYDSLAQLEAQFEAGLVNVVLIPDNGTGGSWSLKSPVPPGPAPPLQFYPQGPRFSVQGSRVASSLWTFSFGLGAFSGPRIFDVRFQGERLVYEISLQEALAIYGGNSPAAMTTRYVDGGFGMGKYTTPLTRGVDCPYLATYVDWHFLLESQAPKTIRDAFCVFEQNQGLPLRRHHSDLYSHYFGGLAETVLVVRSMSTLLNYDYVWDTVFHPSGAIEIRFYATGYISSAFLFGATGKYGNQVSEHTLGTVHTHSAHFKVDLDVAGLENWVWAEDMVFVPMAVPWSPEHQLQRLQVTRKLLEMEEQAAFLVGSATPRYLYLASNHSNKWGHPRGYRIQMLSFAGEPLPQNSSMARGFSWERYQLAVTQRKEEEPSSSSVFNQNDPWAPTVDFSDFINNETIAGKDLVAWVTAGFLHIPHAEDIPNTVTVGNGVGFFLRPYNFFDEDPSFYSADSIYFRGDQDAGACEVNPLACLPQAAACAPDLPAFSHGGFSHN
Briefly: SSAO enzyme inhibition assay (benzylamine substrate; hydrogen peroxide/HRP-coupled or 14C aldehyde detection). The format is biochemical. To be noted: SSAO inhibitory activity, RT. The method, boiled down:
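IC50 values came from a four-parameter logistic fit of % signal decrease versus DMSO control, with no-enzyme background subtracted. Two read-outs were used with human recombinant SSAO after ~15 min compound pre-incubation at RT. In the H2O2/HRP-Amplex read-out, enzyme was 1 ug/ml and benzylamine 100 uM (pH 7.4 phosphate), with resorufin fluorescence followed 1-2 h. In the 14C-benzaldehyde read-out (PBS), enzyme was 10 ug/ml and benzylamine 40 uM, run 1 h then acid-stopped.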

Test [2] deals with T2, human ether a go-go related gene (hERG) K+ channel (Homo sapiens, UniProt Q12809).
T2 construct: a Chinese Hamster Lung cell line stably expressing the full length hERG channel; expressed in transfected cells; host or cells: Chinese Hamster Lung cell line
T2 sequence (Q12809 whole entry): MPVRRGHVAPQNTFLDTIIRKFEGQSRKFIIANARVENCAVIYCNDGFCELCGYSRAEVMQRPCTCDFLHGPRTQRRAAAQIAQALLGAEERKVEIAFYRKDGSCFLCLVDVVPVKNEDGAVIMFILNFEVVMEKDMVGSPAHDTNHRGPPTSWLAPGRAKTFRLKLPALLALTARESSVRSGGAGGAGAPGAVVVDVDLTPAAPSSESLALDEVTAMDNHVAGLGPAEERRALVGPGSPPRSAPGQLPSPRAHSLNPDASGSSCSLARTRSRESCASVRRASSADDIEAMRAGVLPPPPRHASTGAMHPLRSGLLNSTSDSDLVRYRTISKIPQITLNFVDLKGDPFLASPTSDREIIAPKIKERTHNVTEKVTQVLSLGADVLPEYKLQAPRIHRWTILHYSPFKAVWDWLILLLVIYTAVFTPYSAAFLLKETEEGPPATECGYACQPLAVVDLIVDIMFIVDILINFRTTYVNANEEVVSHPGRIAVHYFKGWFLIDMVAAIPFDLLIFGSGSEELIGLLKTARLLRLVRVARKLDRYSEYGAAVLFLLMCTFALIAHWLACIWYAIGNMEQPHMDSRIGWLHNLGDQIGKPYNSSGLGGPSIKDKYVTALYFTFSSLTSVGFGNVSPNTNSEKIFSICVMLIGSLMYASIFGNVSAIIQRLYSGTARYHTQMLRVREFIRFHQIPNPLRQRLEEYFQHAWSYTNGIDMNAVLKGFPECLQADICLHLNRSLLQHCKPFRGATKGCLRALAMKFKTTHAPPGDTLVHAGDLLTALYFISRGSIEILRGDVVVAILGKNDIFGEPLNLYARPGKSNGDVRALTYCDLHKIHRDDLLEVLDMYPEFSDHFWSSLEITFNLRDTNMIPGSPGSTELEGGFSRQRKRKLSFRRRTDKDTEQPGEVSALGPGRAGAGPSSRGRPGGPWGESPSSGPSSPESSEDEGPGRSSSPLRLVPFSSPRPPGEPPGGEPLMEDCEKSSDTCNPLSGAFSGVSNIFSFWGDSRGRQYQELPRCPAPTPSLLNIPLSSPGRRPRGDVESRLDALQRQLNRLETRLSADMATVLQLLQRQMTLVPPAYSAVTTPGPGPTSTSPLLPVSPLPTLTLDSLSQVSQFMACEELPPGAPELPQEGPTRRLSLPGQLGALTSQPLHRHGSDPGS
Briefly: hERG assay, IonWorks patch clamp electrophysiology. The format is cell-based. Conditions: Chinese Hamster Lung cell line stably expressing hERG; max assay concentration 11 uM. The protocol: Compounds of the invention were tested for inhibition of the human ether a go-go related gene (hERG) K^+ channel using IonWorks patch clamp electrophysiology. 8 Point concentration-response curves were generated on two occasions using 3-fold serial dilutions from the maximum assay concentration (11 uM). Electrophysiological recordings were made from a Chinese Hamster Lung cell line stably expressing the full length hERG channel. Single cell ion currents were measured in the perforated patch clamp configuration (100 ug/mL amphoterocin) at room temperature using an IonWorks Quattro instrument. The internal solution contained 140 mM KCl, 1 mM MgCl2, 1 mM EGTA and 20 mM HEPES and was buffered to pH 7.3. The external solution contained 138 mM NaCl, 2.7 mM KCl, 0.9 mM CaCl2, 0.5 mM MgCl2, 8 mM Na2HPO4 and 1.5 mM KH2PO4, and was buffered to pH 7.3. […] This sequence was repeated 5 times at a frequency of 0.25 Hz. Currents were measured from the tail step at the 5th pulse, and referenced to the holding current. Compounds were incubated for 6-7 min prior to a second measurement of the hERG signal using an identical pulse train. […] A control compound (quinidine) was used (see Table 20 below).

As to `CS(=O)(=O)N1CCN(c2ccc(-c3nc4ccncc4n3-c3ccc(F)cc3)cn2)CC1` [Example 89, 1-{5-[3-(4-Fluorophenyl)-3H-imidazo[4,5-c]pyridin-2-yl]pyridin-2-yl}-4-methanesulfonylpiperazine], the IC50 in test [1] was less than 0.05 µM; in test [2], more than 10 µM.
With `NC(=O)NC1CCN(c2ccc(-c3nc4ccncc4n3-c3ccc(Cl)cc3)cn2)CC1` [Example 91, (1-{5-[3-(4-Chlorophenyl)-3H-imidazo[4,5-c]pyridin-2-yl]pyridin-2-yl}piperidin-4-yl)urea; bis(trifluoroacetic acid)], the IC50 is 0.2 to 1.2 µM in test [1] and more than 10 µM in test [2].
The matching figures for `NC(=O)N1CCN(c2ccc(-c3nc4ccncc4n3-c3ccc(F)cc3)cn2)CC1` [Example 92, 4-{5-[3-(4-Fluorophenyl)-3H-imidazo[4,5-c]pyridin-2-yl]pyridin-2-yl}piperazine-1-carboxamide]: less than 0.05 µM and more than 10 µM.
The matching figures for `c1ccc(-n2c(-c3cnc(N4CCOCC4)nc3)nc3ccncc32)cc1` [Example 95, 4-(5-{3-Phenyl-3H-imidazo[4,5-c]pyridin-2-yl}pyrimidin-2-yl)morpholine]: 0.05 to 0.2 µM and more than 10 µM.
The corresponding values for `Fc1ccc(-n2c(-c3cnc(N4CCOCC4)c(F)c3)nc3ccncc32)cc1` [Example 98, 4-{3-Fluoro-5-[3-(4-fluorophenyl)-3H-imidazo[4,5-c]pyridin-2-yl]pyridin-2-yl]morpholine] are 0.05 to 0.2 µM and more than 10 µM.
In the case of `Nc1ccc(-c2nc3ccncc3n2-c2ccc(Cl)cc2)cn1` [Example 110, 5-[3-(4-Chlorophenyl)-3H-imidazo[4,5-c]pyridin-2-yl]pyridin-2-amine], the IC50 in test [1] was 0.2 to 1.2 µM; in test [2] it was more than 10 µM.
The corresponding values for `COCCN(C)c1ncc(-c2nc3ccncc3n2-c2ccc(C)cc2)cn1` [Example 117, N-(2-Methoxyethyl)-N-methyl-5-[3-(4-methylphenyl)-3H-imidazo[4,5-c]pyridin-2-yl]pyrimidin-2-amine] are 0.2 to 1.2 µM and more than 10 µM.
With `Clc1ccc(-n2c(-c3ccncc3)cc3ccncc32)cc1` [Example 120, 4-[1-(4-Chlorophenyl)-1H-pyrrolo[2,3-c]pyridin-2-yl]pyridine], the IC50 in test [1] was 0.2 to 1.2 µM; in test [2], 1 to 10 µM.
As for `Clc1ccc(-n2c(-c3cccnc3)cc3ccncc32)cc1` [Example 122, 3-[1-(4-Chlorophenyl)-1H-pyrrolo[2,3-c]pyridin-2-yl]pyridine], the IC50 is 0.05 to 0.2 µM in test [1] and 1 to 10 µM in test [2].
The matching figures for `Clc1ccc(-n2c(-c3cnc(N4CCOCC4)nc3)cc3ccncc32)cc1` [Example 127, 4-{5-[1-(4-Chlorophenyl)-1H-pyrrolo[2,3-c]pyridin-2-yl]pyrimidin-2-yl}morpholine]: less than 0.05 µM and 0.1 to 1 µM.
The matching figures for `O=C1CN(c2ncc(-c3cc4ccncc4n3-c3ccc(Cl)cc3)cn2)CCN1` [Example 128, 4-{5-[1-(4-Chlorophenyl)-1H-pyrrolo[2,3-c]pyridin-2-yl]pyrimidin-2-yl}piperazin-2-one]: less than 0.05 µM and more than 10 µM.
As to `O=c1cc(-c2cc3ccncc3n2-c2ccc(Cl)cc2)ccn1C1CC1` [Example 138, 4-[1-(4-Chlorophenyl)-1H-pyrrolo[2,3-c]pyridin-2-yl]-1-cyclopropyl-1,2-dihydropyridin-2-one], the values for the IC50 in test [1] and in test [2] were less than 0.05 µM and 1 to 10 µM, respectively.
The matching figures for `Clc1ccc(-n2c(-c3cnc(NC4CCOCC4)nc3)cc3ccncc32)cc1` [Example 139, 5-[1-(4-Chlorophenyl)-1H-pyrrolo[2,3-c]pyridin-2-yl]-N-(oxan-4-yl)pyrimidin-2-amine]: less than 0.05 µM and 0.1 to 1 µM.
The corresponding values for `Clc1ccc(-n2c(-c3ccc(CN4CCOCC4)nc3)cc3ccncc32)cc1` [Example 140, 4-({5-[1-(4-Chlorophenyl)-1H-pyrrolo[2,3-c]pyridin-2-yl]pyridin-2-yl}methyl)morpholine] are less than 0.05 µM and 1 to 10 µM.
The matching figures for `O=c1cc(-c2cc3ccncc3n2-c2ccc(Cl)cc2)cc[nH]1` [Example 142, 4-[1-(4-Chlorophenyl)-1H-pyrrolo[2,3-c]pyridin-2-yl]-1,2-dihydropyridin-2-one]: 0.05 to 0.2 µM and 1 to 10 µM.
Turning to `Nc1cc(-c2cc3ccncc3n2-c2ccc(Cl)cc2)ccn1` [Example 147, 4-[1-(4-Chlorophenyl)-1H-pyrrolo[2,3-c]pyridin-2-yl]pyridin-2-amine], the values for the IC50 in test [1] and in test [2] were less than 0.05 µM and 1 to 10 µM, respectively.
Consider `Fc1cnccc1-c1cc2ccncc2n1-c1ccc(Cl)cc1` [Example 152, 4-[1-(4-Chlorophenyl)-1H-pyrrolo[2,3-c]pyridin-2-yl]-3-fluoropyridine], for which the IC50 in test [1] is 0.2 to 1.2 µM; in test [2], 1 to 10 µM.
The corresponding values for `Clc1ccc(-n2c(-c3ccncc3Cl)cc3ccncc32)cc1` [Example 153, 3-Chloro-4-[1-(4-chlorophenyl)-1H-pyrrolo[2,3-c]pyridin-2-yl]pyridine] are 0.05 to 0.2 µM and 1 to 10 µM.

For orientation: IC50 means the concentration at which inhibition is half-maximal.
